According to publication PMC5869712 (Scientific Reports, 2018):
pIC50: −log10 of the molar value.

Assays:
Test in all cases: Eurofins Kinase Profiler panel
Assay type in all cases: biochemical
CDK6 = molecular target: T1, CDK6 (Homo sapiens, UniProt Q00534); conditions: read-out: % inhibition (1μM), DMSO control=100%, lower=stronger
T1 construct: purchased Eurofins KinaseProfiler (Eurofins Pharma Discovery Services UK, Dundee); JAK3 also ChemPartner
Description: (§1) The assay protocol guides are commercially available from ChemPartner.

CDK7 = molecular target: T2, CDK7 (Homo sapiens, UniProt P50613); conditions: read-out: % inhibition (1μM), DMSO control=100%, lower=stronger
T2 construct: purchased Eurofins KinaseProfiler (Eurofins Pharma Discovery Services UK, Dundee); JAK3 also ChemPartner
T2 sequence (P50613 whole entry): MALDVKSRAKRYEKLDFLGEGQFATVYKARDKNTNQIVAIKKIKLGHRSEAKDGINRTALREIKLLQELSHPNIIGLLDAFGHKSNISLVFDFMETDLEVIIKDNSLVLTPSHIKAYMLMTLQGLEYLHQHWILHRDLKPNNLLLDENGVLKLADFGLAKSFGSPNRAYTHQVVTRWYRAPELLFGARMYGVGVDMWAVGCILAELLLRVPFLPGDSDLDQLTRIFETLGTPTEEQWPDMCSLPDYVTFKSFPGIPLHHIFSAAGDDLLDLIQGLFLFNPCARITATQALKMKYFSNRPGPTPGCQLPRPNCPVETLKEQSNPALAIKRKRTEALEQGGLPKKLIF
T2 sequence (P51946 whole entry partner): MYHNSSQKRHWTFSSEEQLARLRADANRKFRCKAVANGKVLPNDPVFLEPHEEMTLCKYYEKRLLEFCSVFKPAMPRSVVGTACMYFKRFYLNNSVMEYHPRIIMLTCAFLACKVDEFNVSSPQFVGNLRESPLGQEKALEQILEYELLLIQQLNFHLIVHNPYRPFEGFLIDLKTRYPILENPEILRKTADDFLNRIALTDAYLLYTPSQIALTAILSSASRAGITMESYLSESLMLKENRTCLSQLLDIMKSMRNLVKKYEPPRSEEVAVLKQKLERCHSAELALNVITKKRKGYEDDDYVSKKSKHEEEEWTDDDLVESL
T2 sequence (P51948 whole entry partner): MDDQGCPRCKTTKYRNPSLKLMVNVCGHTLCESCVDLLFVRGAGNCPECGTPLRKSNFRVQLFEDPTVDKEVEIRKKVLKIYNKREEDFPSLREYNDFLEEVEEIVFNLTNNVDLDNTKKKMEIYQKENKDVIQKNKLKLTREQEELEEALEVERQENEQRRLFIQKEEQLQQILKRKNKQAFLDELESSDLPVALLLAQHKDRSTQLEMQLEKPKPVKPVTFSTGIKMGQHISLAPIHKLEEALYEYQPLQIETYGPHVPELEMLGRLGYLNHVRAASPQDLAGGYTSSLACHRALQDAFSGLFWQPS
Description: as §1

CK1 = conditions: read-out: % inhibition (1μM), DMSO control=100%, lower=stronger
Description: as §1

CLK2 = molecular target: T3, CLK2 (Homo sapiens, UniProt P49760)
T3 construct: Eurofins Pharma Discovery Services UK Limited (Kinase Profiler service)
T3 sequence (P49760 whole entry): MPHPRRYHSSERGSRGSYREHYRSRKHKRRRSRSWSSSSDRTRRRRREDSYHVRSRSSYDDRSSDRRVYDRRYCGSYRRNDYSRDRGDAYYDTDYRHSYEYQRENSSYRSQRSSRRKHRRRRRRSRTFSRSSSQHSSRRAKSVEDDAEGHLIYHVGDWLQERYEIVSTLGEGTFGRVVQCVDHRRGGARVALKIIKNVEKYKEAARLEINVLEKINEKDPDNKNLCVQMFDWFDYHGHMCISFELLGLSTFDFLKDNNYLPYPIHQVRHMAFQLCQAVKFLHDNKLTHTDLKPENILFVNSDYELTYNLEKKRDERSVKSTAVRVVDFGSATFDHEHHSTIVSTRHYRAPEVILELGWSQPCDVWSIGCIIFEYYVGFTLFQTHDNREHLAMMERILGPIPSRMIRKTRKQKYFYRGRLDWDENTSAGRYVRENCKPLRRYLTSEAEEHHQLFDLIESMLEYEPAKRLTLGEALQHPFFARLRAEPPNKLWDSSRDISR
Description: as §1

CaMKI = molecular target: T4, CaMKI (Homo sapiens, UniProt Q14012); conditions: read-out: % inhibition (1μM), DMSO control=100%, lower=stronger
T4 construct: purchased Eurofins KinaseProfiler (Eurofins Pharma Discovery Services UK, Dundee); JAK3 also ChemPartner
Description: as §1

CaMKIIβ = molecular target: T5, CaMKIIβ (Homo sapiens, UniProt Q13554); conditions: read-out: % inhibition (1μM), DMSO control=100%, lower=stronger
T5 construct: purchased Eurofins KinaseProfiler (Eurofins Pharma Discovery Services UK, Dundee); JAK3 also ChemPartner
Description: as §1

CaMKK2 = molecular target: T6, CaMKK2 (Homo sapiens, UniProt Q96RR4); conditions: read-out: % inhibition (1μM), DMSO control=100%, lower=stronger
T6 construct: purchased Eurofins KinaseProfiler (Eurofins Pharma Discovery Services UK, Dundee); JAK3 also ChemPartner
Description: as §1

DDR1 = molecular target: T7, DDR1 (Homo sapiens, UniProt Q08345); conditions: read-out: % inhibition (1μM), DMSO control=100%, lower=stronger
T7 construct: purchased Eurofins KinaseProfiler (Eurofins Pharma Discovery Services UK, Dundee); JAK3 also ChemPartner
Description: as §1

DYRK1A = molecular target: T8, DYRK1A (Homo sapiens, UniProt Q13627); conditions: read-out: % inhibition (1μM), DMSO control=100%, lower=stronger
T8 construct: purchased Eurofins KinaseProfiler (Eurofins Pharma Discovery Services UK, Dundee); JAK3 also ChemPartner
Description: as §1

DYRK1B = molecular target: T9, DYRK1B (Homo sapiens, UniProt Q9Y463); conditions: read-out: % inhibition (1μM), DMSO control=100%, lower=stronger
T9 construct: Eurofins Pharma Discovery Services UK Limited (Kinase Profiler service)
Description: as §1

Flt1 = molecular target: T10, Flt1 (Homo sapiens, UniProt P17948); conditions: read-out: % inhibition (1μM), DMSO control=100%, lower=stronger
T10 construct: purchased Eurofins Pharma Discovery Services UK Limited (Kinase Profiler screening platform)
Description: as §1

GSK3α = molecular target: T11, GSK3α (Homo sapiens, UniProt P49840); conditions: read-out: % inhibition (1μM), DMSO control=100%, lower=stronger
T11 construct: purchased Eurofins KinaseProfiler (Eurofins Pharma Discovery Services UK, Dundee); JAK3 also ChemPartner
Description: as §1

Mer = molecular target: T12, Mer (Homo sapiens, UniProt Q12866); conditions: read-out: % inhibition (1μM), DMSO control=100%, lower=stronger
T12 construct: purchased Eurofins KinaseProfiler (Eurofins Pharma Discovery Services UK, Dundee); JAK3 also ChemPartner
Description: as §1

NEK2 = molecular target: T13, NEK2 (Homo sapiens, UniProt P51955); conditions: read-out: % inhibition (1μM), DMSO control=100%, lower=stronger
T13 construct: purchased Eurofins Pharma Discovery Services UK Limited (Kinase Profiler screening platform)
Description: as §1

PAK4 = molecular target: T14, PAK4 (Homo sapiens, UniProt O96013); conditions: read-out: % inhibition (1μM), DMSO control=100%, lower=stronger
T14 construct: purchased Eurofins Pharma Discovery Services UK Limited (Kinase Profiler screening platform)
Description: as §1

PDGFRα = molecular target: T15, PDGFRα (Homo sapiens, UniProt P16234); conditions: read-out: % inhibition (1μM), DMSO control=100%, lower=stronger
T15 construct: purchased Eurofins Pharma Discovery Services UK Limited (Kinase Profiler screening platform)
Description: as §1

PKA = molecular target: T16, PKA (Homo sapiens, UniProt P17612); conditions: read-out: % inhibition (1μM), DMSO control=100%, lower=stronger
T16 construct: purchased Eurofins KinaseProfiler (Eurofins Pharma Discovery Services UK, Dundee); JAK3 also ChemPartner
Description: as §1

PKBα = molecular target: T17, PKBα (Homo sapiens, UniProt P31749); conditions: read-out: % inhibition (1μM), DMSO control=100%, lower=stronger
T17 construct: purchased Eurofins KinaseProfiler (Eurofins Pharma Discovery Services UK, Dundee); JAK3 also ChemPartner
Description: as §1

PKCθ = molecular target: T18, PKCθ (Homo sapiens, UniProt Q04759); conditions: read-out: % inhibition (1μM), DMSO control=100%, lower=stronger
T18 construct: purchased Eurofins KinaseProfiler (Eurofins Pharma Discovery Services UK, Dundee); JAK3 also ChemPartner
Description: as §1

PKG1α = molecular target: T19, PKG1α (Homo sapiens, UniProt Q13976)
T19 construct: Eurofins Pharma Discovery Services UK Limited (Kinase Profiler service)
T19 sequence (Q13976 whole entry): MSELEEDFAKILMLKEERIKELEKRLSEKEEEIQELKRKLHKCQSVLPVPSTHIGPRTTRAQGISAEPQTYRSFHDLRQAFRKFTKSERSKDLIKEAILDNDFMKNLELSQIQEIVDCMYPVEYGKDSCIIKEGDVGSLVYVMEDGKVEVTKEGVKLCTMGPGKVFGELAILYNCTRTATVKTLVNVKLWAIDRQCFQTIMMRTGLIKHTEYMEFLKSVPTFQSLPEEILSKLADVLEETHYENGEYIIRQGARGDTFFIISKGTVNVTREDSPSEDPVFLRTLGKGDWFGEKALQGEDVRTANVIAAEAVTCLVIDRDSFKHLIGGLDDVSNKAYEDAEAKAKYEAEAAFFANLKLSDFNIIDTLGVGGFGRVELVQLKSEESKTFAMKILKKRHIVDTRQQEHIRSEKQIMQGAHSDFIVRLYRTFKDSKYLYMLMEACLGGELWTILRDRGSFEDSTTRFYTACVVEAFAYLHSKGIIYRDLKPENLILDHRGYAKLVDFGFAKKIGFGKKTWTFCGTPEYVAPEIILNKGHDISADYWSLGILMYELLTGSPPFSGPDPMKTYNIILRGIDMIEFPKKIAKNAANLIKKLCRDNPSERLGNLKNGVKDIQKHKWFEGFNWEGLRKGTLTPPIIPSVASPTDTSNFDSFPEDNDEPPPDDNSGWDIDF
Description: as §1

PRK2 = molecular target: T20, PRK2 (Homo sapiens, UniProt Q16513); conditions: read-out: % inhibition (1μM), DMSO control=100%, lower=stronger
T20 construct: purchased Eurofins KinaseProfiler (Eurofins Pharma Discovery Services UK, Dundee); JAK3 also ChemPartner
Description: as §1

Pim-1 = molecular target: T21, Pim-1 (Homo sapiens, UniProt P11309); conditions: read-out: % inhibition (1μM), DMSO control=100%, lower=stronger
T21 construct: purchased Eurofins Pharma Discovery Services UK Limited (Kinase Profiler screening platform)
Description: as §1

Pim-2 = molecular target: T22, Pim-2 (Homo sapiens, UniProt Q9P1W9); conditions: read-out: % inhibition (1μM), DMSO control=100%, lower=stronger
T22 construct: purchased Eurofins KinaseProfiler (Eurofins Pharma Discovery Services UK, Dundee); JAK3 also ChemPartner
Description: as §1

Plk3 = molecular target: T23, Plk3 (Homo sapiens, UniProt Q9H4B4); conditions: read-out: % inhibition (1μM), DMSO control=100%, lower=stronger
T23 construct: purchased Eurofins KinaseProfiler (Eurofins Pharma Discovery Services UK, Dundee); JAK3 also ChemPartner
Description: as §1

ROCK-I = molecular target: T24, ROCK-I (Homo sapiens, UniProt Q13464); conditions: read-out: % inhibition (1μM), DMSO control=100%, lower=stronger
T24 construct: purchased Eurofins KinaseProfiler (Eurofins Pharma Discovery Services UK, Dundee); JAK3 also ChemPartner
Description: as §1

ROCK-II = molecular target: T25, ROCK-II (Homo sapiens, UniProt O75116); conditions: read-out: % inhibition (1μM), DMSO control=100%, lower=stronger
T25 construct: purchased Eurofins KinaseProfiler (Eurofins Pharma Discovery Services UK, Dundee); JAK3 also ChemPartner
T25 sequence (O75116 whole entry): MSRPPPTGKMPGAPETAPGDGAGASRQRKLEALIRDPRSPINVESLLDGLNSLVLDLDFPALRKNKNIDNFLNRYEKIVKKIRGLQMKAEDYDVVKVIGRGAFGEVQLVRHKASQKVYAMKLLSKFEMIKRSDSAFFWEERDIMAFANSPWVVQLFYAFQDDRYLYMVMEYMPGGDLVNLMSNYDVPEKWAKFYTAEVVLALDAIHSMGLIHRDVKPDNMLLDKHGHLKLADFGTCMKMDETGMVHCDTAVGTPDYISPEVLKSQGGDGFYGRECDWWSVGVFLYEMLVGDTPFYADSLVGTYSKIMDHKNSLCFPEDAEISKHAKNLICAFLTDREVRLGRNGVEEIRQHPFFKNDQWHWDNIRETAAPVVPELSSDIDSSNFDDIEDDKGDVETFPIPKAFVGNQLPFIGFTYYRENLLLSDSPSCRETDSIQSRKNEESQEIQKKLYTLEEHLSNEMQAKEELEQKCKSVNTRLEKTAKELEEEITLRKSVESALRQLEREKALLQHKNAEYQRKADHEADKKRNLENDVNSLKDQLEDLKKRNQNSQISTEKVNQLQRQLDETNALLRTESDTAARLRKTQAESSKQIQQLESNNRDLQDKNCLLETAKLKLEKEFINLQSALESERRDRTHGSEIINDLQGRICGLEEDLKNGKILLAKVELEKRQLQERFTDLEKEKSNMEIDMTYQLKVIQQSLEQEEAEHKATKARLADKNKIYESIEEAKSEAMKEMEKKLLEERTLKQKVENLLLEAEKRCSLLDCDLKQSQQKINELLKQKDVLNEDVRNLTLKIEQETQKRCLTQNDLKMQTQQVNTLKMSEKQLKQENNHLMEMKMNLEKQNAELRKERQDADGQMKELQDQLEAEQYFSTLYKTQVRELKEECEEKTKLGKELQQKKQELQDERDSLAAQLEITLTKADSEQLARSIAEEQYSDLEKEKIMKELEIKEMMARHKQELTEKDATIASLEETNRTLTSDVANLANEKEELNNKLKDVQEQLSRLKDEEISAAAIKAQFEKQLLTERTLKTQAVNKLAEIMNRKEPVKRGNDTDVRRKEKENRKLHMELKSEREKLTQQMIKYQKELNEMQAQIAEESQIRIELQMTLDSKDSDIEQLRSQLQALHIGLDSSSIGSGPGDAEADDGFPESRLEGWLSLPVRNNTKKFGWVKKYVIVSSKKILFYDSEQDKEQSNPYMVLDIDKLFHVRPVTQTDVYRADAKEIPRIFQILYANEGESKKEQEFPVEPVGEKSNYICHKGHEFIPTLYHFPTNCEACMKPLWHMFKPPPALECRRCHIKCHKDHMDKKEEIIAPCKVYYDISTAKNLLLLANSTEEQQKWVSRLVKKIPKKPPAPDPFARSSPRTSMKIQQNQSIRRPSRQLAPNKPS
Description: as §1

Ret = molecular target: T26, Ret (Homo sapiens, UniProt P07949); conditions: read-out: % inhibition (1μM), DMSO control=100%, lower=stronger
T26 construct: purchased Eurofins KinaseProfiler (Eurofins Pharma Discovery Services UK, Dundee); JAK3 also ChemPartner
Description: as §1

Rsk2 = molecular target: T27, Rsk2 (Homo sapiens, UniProt P51812); conditions: read-out: % inhibition (1μM), DMSO control=100%, lower=stronger
T27 construct: purchased Eurofins KinaseProfiler (Eurofins Pharma Discovery Services UK, Dundee); JAK3 also ChemPartner
Description: as §1

SAPK2a = molecular target: T28, SAPK2a (Homo sapiens, UniProt Q16539); conditions: read-out: % inhibition (1μM), DMSO control=100%, lower=stronger
T28 construct: purchased Eurofins KinaseProfiler (Eurofins Pharma Discovery Services UK, Dundee); JAK3 also ChemPartner
Description: as §1

SAPK2b = molecular target: T29, SAPK2b (Homo sapiens, UniProt Q15759); conditions: read-out: % inhibition (1μM), DMSO control=100%, lower=stronger
T29 construct: purchased Eurofins KinaseProfiler (Eurofins Pharma Discovery Services UK, Dundee); JAK3 also ChemPartner
Description: as §1

SAPK3 = molecular target: T30, SAPK3 (Homo sapiens, UniProt P53778); conditions: read-out: % inhibition (1μM), DMSO control=100%, lower=stronger
T30 construct: purchased Eurofins KinaseProfiler (Eurofins Pharma Discovery Services UK, Dundee); JAK3 also ChemPartner
Description: as §1

SAPK4 = molecular target: T31, SAPK4 (Homo sapiens, UniProt O15264); conditions: read-out: % inhibition (1μM), DMSO control=100%, lower=stronger
T31 construct: purchased Eurofins KinaseProfiler (Eurofins Pharma Discovery Services UK, Dundee); JAK3 also ChemPartner
Description: as §1

SGK = molecular target: T32, SGK (Homo sapiens, UniProt O00141); conditions: read-out: % inhibition (1μM), DMSO control=100%, lower=stronger
T32 construct: purchased Eurofins KinaseProfiler (Eurofins Pharma Discovery Services UK, Dundee); JAK3 also ChemPartner
Description: as §1

STK33 = molecular target: T33, STK33 (Homo sapiens, UniProt Q9BYT3); conditions: read-out: % inhibition (1μM), DMSO control=100%, lower=stronger
T33 construct: purchased Eurofins KinaseProfiler (Eurofins Pharma Discovery Services UK, Dundee); JAK3 also ChemPartner
T33 sequence (Q9BYT3 whole entry): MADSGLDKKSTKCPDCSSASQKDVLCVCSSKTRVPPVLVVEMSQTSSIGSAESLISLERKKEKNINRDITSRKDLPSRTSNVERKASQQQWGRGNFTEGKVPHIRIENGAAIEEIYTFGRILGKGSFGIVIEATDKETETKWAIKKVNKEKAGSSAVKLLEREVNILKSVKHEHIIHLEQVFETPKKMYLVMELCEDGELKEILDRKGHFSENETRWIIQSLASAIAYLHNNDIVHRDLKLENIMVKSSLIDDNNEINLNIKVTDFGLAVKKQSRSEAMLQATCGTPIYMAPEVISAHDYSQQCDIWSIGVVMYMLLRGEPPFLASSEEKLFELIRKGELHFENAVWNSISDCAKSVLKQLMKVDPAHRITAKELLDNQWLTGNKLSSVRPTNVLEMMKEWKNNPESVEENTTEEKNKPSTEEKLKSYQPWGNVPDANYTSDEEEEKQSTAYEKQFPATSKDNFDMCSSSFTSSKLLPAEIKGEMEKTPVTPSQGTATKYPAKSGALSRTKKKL
Description: as §1

Src = molecular target: T34, Src (Homo sapiens, UniProt P12931); conditions: read-out: % inhibition (1μM), DMSO control=100%, lower=stronger
T34 construct: purchased Eurofins KinaseProfiler (Eurofins Pharma Discovery Services UK, Dundee); JAK3 also ChemPartner
Description: as §1

Syk = molecular target: T35, Syk (Homo sapiens, UniProt P43405); conditions: read-out: % inhibition (1μM), DMSO control=100%, lower=stronger
T35 construct: Eurofins Pharma Discovery Services UK Limited (Kinase Profiler service)
Description: as §1

TAO1 = molecular target: T36, TAO1 (Homo sapiens, UniProt Q7L7X3); conditions: read-out: % inhibition (1μM), DMSO control=100%, lower=stronger
T36 construct: Eurofins Pharma Discovery Services UK Limited (Kinase Profiler service)
T36 sequence (Q7L7X3 whole entry): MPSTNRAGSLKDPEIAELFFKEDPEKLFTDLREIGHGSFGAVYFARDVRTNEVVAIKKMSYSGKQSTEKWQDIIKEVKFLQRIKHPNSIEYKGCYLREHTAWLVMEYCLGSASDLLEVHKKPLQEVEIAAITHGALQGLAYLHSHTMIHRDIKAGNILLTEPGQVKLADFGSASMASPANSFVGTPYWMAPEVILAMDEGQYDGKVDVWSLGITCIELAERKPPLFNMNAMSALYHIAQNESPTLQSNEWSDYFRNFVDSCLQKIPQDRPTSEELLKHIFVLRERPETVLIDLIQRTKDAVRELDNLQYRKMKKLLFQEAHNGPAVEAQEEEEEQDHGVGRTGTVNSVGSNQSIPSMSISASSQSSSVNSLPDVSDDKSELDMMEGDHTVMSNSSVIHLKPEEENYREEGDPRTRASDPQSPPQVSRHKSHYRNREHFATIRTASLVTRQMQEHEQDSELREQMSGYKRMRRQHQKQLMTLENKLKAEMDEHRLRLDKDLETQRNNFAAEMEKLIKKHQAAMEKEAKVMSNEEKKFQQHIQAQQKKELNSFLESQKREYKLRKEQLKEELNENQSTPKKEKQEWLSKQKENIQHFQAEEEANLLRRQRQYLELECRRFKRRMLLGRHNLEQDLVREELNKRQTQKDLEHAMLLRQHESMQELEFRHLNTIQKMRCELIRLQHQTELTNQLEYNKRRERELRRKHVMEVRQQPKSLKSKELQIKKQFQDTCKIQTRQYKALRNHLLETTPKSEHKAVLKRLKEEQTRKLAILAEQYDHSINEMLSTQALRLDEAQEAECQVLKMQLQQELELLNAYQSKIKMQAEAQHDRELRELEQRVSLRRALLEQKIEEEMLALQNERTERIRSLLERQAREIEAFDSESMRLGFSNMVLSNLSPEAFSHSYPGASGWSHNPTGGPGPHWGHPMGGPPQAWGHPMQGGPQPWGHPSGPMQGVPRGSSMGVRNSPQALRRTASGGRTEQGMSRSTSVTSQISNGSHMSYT
Description: as §1

TBK1 = molecular target: T37, TBK1 (Homo sapiens, UniProt Q9UHD2); conditions: read-out: % inhibition (1μM), DMSO control=100%, lower=stronger
T37 construct: purchased Eurofins Pharma Discovery Services UK Limited (Kinase Profiler screening platform)
Description: as §1

TrkA = molecular target: T38, TrkA (Homo sapiens, UniProt P04629); conditions: read-out: % inhibition (1μM), DMSO control=100%, lower=stronger
T38 construct: purchased Eurofins Pharma Discovery Services UK Limited (Kinase Profiler screening platform)
Description: as §1

TrkB = molecular target: T39, TrkB (Homo sapiens, UniProt Q16620); conditions: read-out: % inhibition (1μM), DMSO control=100%, lower=stronger
T39 construct: purchased Eurofins Pharma Discovery Services UK Limited (Kinase Profiler screening platform)
Description: as §1

TrkC = molecular target: T40, TrkC (Homo sapiens, UniProt Q16288); conditions: read-out: % inhibition (1μM), DMSO control=100%, lower=stronger
T40 construct: purchased Eurofins Pharma Discovery Services UK Limited (Kinase Profiler screening platform)
Description: as §1

Wee1 = molecular target: T41, Wee1 (Homo sapiens, UniProt P30291); conditions: read-out: % inhibition (1μM), DMSO control=100%, lower=stronger
T41 construct: purchased Eurofins Pharma Discovery Services UK Limited (Kinase Profiler screening platform)
Description: as §1

Fms = molecular target: T42, Fms (Homo sapiens, UniProt P07333); conditions: read-out: % inhibition (1μM), DMSO control=100%, lower=stronger
T42 construct: purchased Eurofins Pharma Discovery Services UK Limited (Kinase Profiler screening platform)

[1] = read-out: % inhibition (1μM), 1 µM, DMSO control=100%, lower=stronger

C=CC(=O)N[C@@H]1CCCN(c2ncnc3[nH]ccc23)C1 [RB1]
activity at 1 µM (CDK6): 100%
activity at 1 µM (CDK7): 95%
activity (CK1): 82%
pIC50 (CLK2; estimated): < 6.10
activity at 1 µM (CLK2; [1]): 18%
activity at 1 µM (CaMKI): 96%
activity at 1 µM (CaMKIIβ): 85%
activity at 1 µM (CaMKK2): 101%
activity at 1 µM (DDR1): 75%
activity at 1 µM (DYRK1A): 91%
activity at 1 µM (DYRK1B): 86%
activity at 1 µM (Flt1): 93%
activity at 1 µM (GSK3α): 82%
activity at 1 µM (Mer): 68%
activity at 1 µM (NEK2): 99%
activity at 1 µM (PAK4): 81%
activity at 1 µM (PDGFRα): 96%
activity at 1 µM (PKA): 85%
activity at 1 µM (PKBα): 94%
activity at 1 µM (PKCθ): 80%
pIC50 (PKG1α; estimated): < 6.10
activity at 1 µM (PKG1α; [1]): 23%
activity at 1 µM (PRK2): 79%
activity at 1 µM (Pim-1): 62%
activity at 1 µM (Pim-2): 98%
activity at 1 µM (Plk3): 99%
activity at 1 µM (ROCK-I): 88%
activity at 1 µM (ROCK-II): 88%
activity at 1 µM (Ret): 86%
activity at 1 µM (Rsk2): 76%
activity at 1 µM (SAPK2a): 100%
activity at 1 µM (SAPK2b): 103%
activity at 1 µM (SAPK3): 94%
activity at 1 µM (SAPK4): 95%
activity at 1 µM (SGK): 92%
activity at 1 µM (STK33): 93%
activity at 1 µM (Src): 102%
activity at 1 µM (Syk): 104%
activity at 1 µM (TAO1): 70%
activity at 1 µM (TBK1): 96%
activity at 1 µM (TrkA): 46%
activity at 1 µM (TrkB): 38%
activity at 1 µM (TrkC): 75%
activity at 1 µM (Wee1): 90%
activity at 1 µM (Fms): 90%
